Laboratory results taken from patent US10201527B2, “Benzimidazole derivatives: preparation and pharmaceutical applications” (MEI PHARMA, INC., priority 2003, dated 2019).

Assays:
[1] = target: HDAC3 (Homo sapiens (Human), UniProt O15379); assay: In vitro HDAC assay, HDAC3; type: biochemical; details: Free base
Description: In Vitro HDAC Assay for Determination of IC50 Values
The assay has been carried out in 96 well format and the BIOMOL fluorescent-based HDAC activity assay has been applied. […] Flur de lys Developer was added and the reaction was incubated for 10 min. Briefly, deacetylation of the substrate sensitizes it to the developer, which then generates a fluorophore (symbol). The fluorophore is excited with 360 nm light and the emitted light (460 nm) is detected on a fluorometric plate reader (Tecan Ultra Microplate detection system, Tecan Group Ltd.).
The analytical software, Prism 3.0 has been used to generate IC50 from a series of data.

[2] = system: acetylated histone 3 [AcH3(lys9/14)] in Colo205 cells; assay: Histone H3 acetylation assay, ELISA approach; type: cell-based; details: Homo sapiens, COLO 205, read-out: EC50, concentration effective for induction of acetylation of histone 3 ([AcH3(lys9/14)]) signal by 50%, 24 h treatment
Description: Histone H3 Acetylation Assay—ELISA Approach
An Enzyme Linked Immunosorbent Assay (ELISA) can be applied to detect and quantify the acetylated histone3 (AcH3) in the protein lysate obtained from cancer cell lines treated with the HDAC inhibitors.
The ELISA assay was developed to detect the level of AcH3 from the Colo205 colon cancer cell line treated with 10 μM HDAC inhibitory compounds. The protein lysates from untreated and treated Colo205 were obtained as previously described. The concentration of protein from lysed cells was determined using the BCA method (Sigma-Aldrich Pte Ltd).
The detection antibody used in this ELISA was donkey anti rabbit conjugated with peroxidase.
Colo205 cells were subsequently treated with HDAC inhibitors at different doses (in duplicates, 9 doses treatment, 4-fold dilutions from 100 μM). After treatment for 24 h, cells were lysed and the protein concentration was determined.
The ELISA plate (immulon 2HB plate, Biolaboratories Pte Ltd) was coated with 4 μg/ml of mouse monoclonal antibody against H3 at 4° C. overnight. […] The absorbance was measured at OD450 nm using Spectromax reader (Molecular Devices Corporation, Sunnyvale, Calif.).
The standard curve was drawn and the concentration of AcH3 [(Lys9/14), μg/ml] in a sample was determined using the Softmax software in Spectromax. The amount of AcH3 in a sample was calculated based on the following formula; […]

[3] = system: Colo205 cells; assay: Cell-based proliferation assay (cyquant), Colo205; details: Homo sapiens, 96 h treatment;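 further: Colo205 human colon cancer cells exposed to compounds over a concentration range for 96 h, growth read by CyQUANT proliferation assay, GI50 taken from fitted dose-response curves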
Description: A549 and Colo205 cells were seeded in 96-wells plate at 2000 and 5000 cells per well respectively. […] The plates were incubated at 37° C., 5% CO2, for 24 h. Cells were treated with compounds at various concentration for 96 h. Cell growth was then monitored using cyquant cell proliferation assay (Invitrogen Pte Ltd). Dose response curves were plotted to determine GI50 values for the compounds using XL-fit.

[4] = system: MDA-MB435 cells; assay: Cell-based proliferation assay (cyquant), MDA-MB435; details: Homo sapiens, MDA-MB-435; 96 h treatment
Description: Cell-Based Proliferation Assay for Determination of GI50 Values
Human colon cancer cell lines (Colo205 and HCT116), human breast cancer cell lines (MDA-MB435 and MDA-MB231), and human lung cancer cell line (A549) were obtained from ATCC. Colo205 cells were cultivated in RPMI 1640 containing 2 mM L-Glutamine, 5% FBS, 1.0 mM Na Pyruvate. A549 and MDA-MB231 were cultivated in RPMI 1640 containing 2 mM L-glutamine, 5% FBS. MDA-MB435 cells were cultivated in DMEM containing 2 mM L-Glutamine, 5% FBS. HCT116 cells were cultivated in IMEM containing 2 mM L-Glutamine, 5% FBS. A549 and Colo205 cells were seeded in 96-wells plate at 2000 and 5000 cells per well respectively. MDA-MB435, HCT116, MDA-MB231 cells were seeded in 96-wells plate at 6000 cells per well. The plates were incubated at 37° C., 5% CO2, for 24 h. Cells were treated with compounds at various concentration for 96 h. Cell growth was then monitored using cyquant cell proliferation assay (Invitrogen Pte Ltd). Dose response curves were plotted to determine GI50 values for the compounds using XL-fit.

[5] = target: HDAC8 enzyme (recombinant GST-HDAC8) (Homo sapiens (Human), UniProt Q9BY41); assay: In vitro HDAC assay (BIOMOL fluorescent-based), HDAC8 enzyme; type: biochemical
Description: (§1) Expression of GST-HDAC1 or HTGST-HDAC8 was done by infecting SF9 cells (Invitrogen Pte Ltd) with pDEST20-HDAC1 or pFASTBAC-GST-HDAC8 baculovirus at MOI=1 for 48 h. Soluble cell lysate was incubated with pre-equilibrated Glutathione Sepharose 4B beads (Amersham) at 4° C. for 2 h. The beads were washed with PBS buffer for 3 times. The GST-HDAC1 protein or GST-HDAC8 protein was eluted by elution buffer containing 50 mM Tris, pH8.0, 150 mM NaCl, 1% Triton X-100 and 10 mM or 20 mM reduced Glutathione. The purified GST-HDAC1 protein or purified GST-HDAC8 protein was dialyzed with HDAC storage buffer containing 10 mM Tris, pH7.5, 100 mM NaCl and 3 mM MgCl2. 20% Glycerol was added to purified GST-HDAC1 protein or purified GST-HDAC8 before storage at −80° C.

[6] = target: HDAC1 enzyme (recombinant GST-HDAC1) (Homo sapiens (Human), UniProt Q13547); assay: In vitro HDAC assay (BIOMOL fluorescent-based), HDAC1 enzyme; type: biochemical
HDAC1 enzyme (recombinant GST-HDAC1), sequence (Q13547 whole entry): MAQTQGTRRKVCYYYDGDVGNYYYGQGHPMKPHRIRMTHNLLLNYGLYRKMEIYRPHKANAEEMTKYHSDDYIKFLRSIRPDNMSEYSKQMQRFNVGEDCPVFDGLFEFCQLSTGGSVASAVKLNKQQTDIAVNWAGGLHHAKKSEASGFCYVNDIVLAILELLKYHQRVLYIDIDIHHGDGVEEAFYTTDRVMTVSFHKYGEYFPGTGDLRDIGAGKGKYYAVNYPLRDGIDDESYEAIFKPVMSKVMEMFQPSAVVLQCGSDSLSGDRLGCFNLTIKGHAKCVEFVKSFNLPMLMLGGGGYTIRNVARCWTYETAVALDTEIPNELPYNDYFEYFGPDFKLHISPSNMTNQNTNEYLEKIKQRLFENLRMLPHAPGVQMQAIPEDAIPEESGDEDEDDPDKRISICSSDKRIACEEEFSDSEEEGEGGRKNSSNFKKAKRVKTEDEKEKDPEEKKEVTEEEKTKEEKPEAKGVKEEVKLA
Description: as §1

HDAC3, sequence (O15379 whole entry): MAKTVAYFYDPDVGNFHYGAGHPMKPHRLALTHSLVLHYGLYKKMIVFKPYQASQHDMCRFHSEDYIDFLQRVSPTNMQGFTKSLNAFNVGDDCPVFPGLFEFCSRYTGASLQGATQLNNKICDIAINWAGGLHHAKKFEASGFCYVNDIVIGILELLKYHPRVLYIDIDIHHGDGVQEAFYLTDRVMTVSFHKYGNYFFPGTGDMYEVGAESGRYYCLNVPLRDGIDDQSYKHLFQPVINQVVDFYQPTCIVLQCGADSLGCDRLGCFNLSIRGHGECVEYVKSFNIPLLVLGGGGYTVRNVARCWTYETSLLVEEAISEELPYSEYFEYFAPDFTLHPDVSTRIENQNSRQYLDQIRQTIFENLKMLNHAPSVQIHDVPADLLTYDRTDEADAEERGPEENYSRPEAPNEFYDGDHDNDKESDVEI
HDAC8 enzyme (recombinant GST-HDAC8), sequence (Q9BY41 whole entry): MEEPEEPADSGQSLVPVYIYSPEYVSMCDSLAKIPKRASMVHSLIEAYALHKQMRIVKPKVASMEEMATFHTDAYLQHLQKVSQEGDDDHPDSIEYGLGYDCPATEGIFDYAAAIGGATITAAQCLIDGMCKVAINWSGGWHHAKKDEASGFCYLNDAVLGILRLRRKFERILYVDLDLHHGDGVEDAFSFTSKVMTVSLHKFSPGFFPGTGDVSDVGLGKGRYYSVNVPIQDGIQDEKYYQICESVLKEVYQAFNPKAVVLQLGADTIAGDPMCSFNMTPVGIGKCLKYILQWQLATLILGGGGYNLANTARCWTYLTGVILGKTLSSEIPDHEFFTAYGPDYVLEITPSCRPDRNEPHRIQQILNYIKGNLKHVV

SMILES | GI50 ([3]; COLO 205) | GI50 [4] | further results
COc1cc(Cn2c(CCc3ccccc3)nc3cc(/C=C/C(=O)NO)ccc32)cc(OC)c1OC [Compound 2, N-Hydroxy-3-[1-(3,4,5-trimethoxybenzyl)-2-(2-phenyl-ethyl)-1H-benzimidazol-5-yl]-acrylamide] | – | – | IC50 [1]: 64 nM; EC50 [2]: 1700 nM
COc1ccc(-c2nc3cc(/C=C/C(=O)NO)ccc3n2CC(O)CO)cc1 (centres unmarked) [Compound 6, N-Hydroxy-3-[1-(2,3-hydroxy-propyl)-2-(4-methoxy-phenyl)-1H-benzimidazole-5-yl]-acrylamide] | > 100000 nM | – | –
COc1cc(-c2nc3cc(/C=C/C(=O)NO)ccc3n2CC(O)CO)ccc1OCc1ccccc1 (centres unmarked) [Compound 7, N-Hydroxy-3-[2-(4-benzyloxy-3-methoxy-phenyl)-1-(2,3-hydroxy-propyl)-1H-benzimidazole-5-yl]-acrylamide] | > 100000 nM | – | –
O=C(/C=C/c1ccc2c(c1)nc(CCc1ccccc1)n2CC(O)CO)NO (centres unmarked) [Compound 8] | 41400 nM | 58400 nM | –
O=C(/C=C/c1ccc2c(c1)nc(-c1ccccn1)n2CC(O)CO)NO (centres unmarked) [Compound 9, N-Hydroxy-3-[1-(2,3-hydroxy-propyl)-2-(2-pyridyl)-1H-benzimidazol-5-yl]-acrylamide] | > 100000 nM | > 100000 nM | –
O=C(/C=C/c1ccc2c(c1)nc(-c1ccccn1)n2CCCO)NO [Compound 13, N-Hydroxy-3-[1-(3-hydroxy-propyl)-2-(2-pyridyl)-1H-benzimidazol-5-yl]-acrylamide] | 12300 nM | 14000 nM | –
COCCCn1c(CCc2ccccc2)nc2cc(/C=C/C(=O)NO)ccc21 [Compound 15] | 1990 nM | 4070 nM | –
O=C(/C=C/c1ccc2c(c1)nc(CCc1ccccc1)n2Cc1ccccn1)NO [Compound 16, N-Hydroxy-3-(2-phenethyl-1-(pyridin-2-yl)methyl-1H-benzimidazol-5-yl)-acrylamide] | 940 nM | 980 nM | –
CN(C)CC(C)(C)Cn1c(CCc2ccccc2)nc2cc(/C=C/C(=O)NO)ccc21 [Compound 17, N-Hydroxy-3-[1-(3-Dimethylamino-2,2-dimethyl-proppyl)-2-phenethyl-1H-benzimidazol-5-yl]-acrylamide] | – | – | IC50 [1]: 29 nM; EC50 [2]: 1100 nM
O=C(/C=C/c1ccc2c(c1)nc(CCc1ccccc1)n2CCc1ccccn1)NO [Compound 18] | 4690 nM | 6160 nM | –
O=C(/C=C/c1ccc2c(c1)nc(COCc1ccccc1)n2CCCO)NO [Compound 19] | 4100 nM | 3970 nM | –
CC(C)Cc1nc2cc(/C=C/C(=O)NO)ccc2n1CCc1ccccn1 [Compound 22] | 13500 nM | 13400 nM | –
O=C(/C=C/c1ccc2c(c1)nc(C1CCCCC1)n2CCCO)NO [Compound 24, N-Hydroxy-[2-cyclohexyl-1-(3-hydroxy-propyl)-1H-benzimidazol-5-yl]-acrylamide] | 30700 nM | 35000 nM | –
CC(C)Cc1nc2cc(/C=C/C(=O)NO)ccc2n1CCc1ccccc1 [Compound 25, N-Hydroxy-3-(2-isobutyl-1-phenethyl-1H-benzimidazol-5-yl]-acrylamide] | 8100 nM | 6820 nM | –
O=C(/C=C/c1ccc2c(c1)nc(COCc1ccccc1)n2CCc1cccnc1)NO [Compound 28] | 2530 nM | 5150 nM | –
O=C(/C=C/c1ccc2c(c1)nc(CCc1ccccc1)n2CCCN1CCOCC1)NO [Compound 31, N-Hydroxy-3-[1-(3-morpholin-4-propyl]-2-phenethyl-1H-benzimidazol-5-yl}-acrylamide] | 1870 nM | 4060 nM | –
O=C(O)CCn1c(CCc2ccccc2)nc2cc(/C=C/C(=O)NO)ccc21 [Compound 32, 3-[5-(2-Hydrocarbamoyl-vinyl)-2-phenethyl-benzimidazol-1-yl]-propionic acid] | – | – | IC50 [5]: 1890 nM
CCCn1c(CCc2ccccc2)nc2cc(/C=C/C(=O)NO)ccc21 [Compound 36, N-Hydroxy-3-(2-phenethyl-1-propyl-1H-benzimidazol-5-yl}-acrylamide] | 2290 nM | 2170 nM | –
O=C(NO)c1ccc2c(c1)nc(CCc1ccccc1)n2CCCO [Compound 40, 1-(3-Hydroxy-propyl)-2-phenethyl-1H-benzimidazol-5-carboxylic acid hydroxyamide] | 25600 nM | 31000 nM | –
CC(Cc1nc2cc(/C=C/C(=O)NO)ccc2n1CCc1cccnc1)c1ccccc1 (centres unmarked) [Compound 41] | 1650 nM | 1910 nM | –
O=C(/C=C/c1ccc2c(c1)nc(CCc1ccccc1)n2CCN1CCOCC1)NO [Compound 44] | 2820 nM | 3650 nM | IC50 [5]: 345 nM; IC50 [6]: 268 nM
COc1cc(Cn2c(CCc3ccccc3)nc3cc(CCC(=O)NO)ccc32)cc(OC)c1OC [Compound 45] | 2410 nM | 1900 nM | –
Cc1nc2cc(/C=C/C(=O)NO)ccc2n1C [Compound 53] | – | – | IC50 [6]: 1850 nM
O=C(/C=C/c1ccc2nc(CCc3ccccc3)n(Cc3ccccc3)c2c1)NO [Compound 58] | – | – | IC50 [6]: 1140 nM
CCn1c(CNCc2ccccc2)nc2cc(/C=C/C(=O)NO)ccc21 [Compound 64, N-Hydroxy-3-[2-(benzylamino-methyl)-ethyl-1H-benzimidazol-5-yl]-acrylamide] | 1700 nM | – | –
O=C(/C=C/c1ccc2c(c1)nc(CCc1ccccc1)n2CCN1CCCCC1)NO [Compound 67, N-Hydroxy-3-[2-phenethyl-1-(piperidin-1-yl-ethyl)-1H-benzimidazol-5-yl]-acrylamide] | – | – | IC50 [1]: 56 nM
O=C(/C=C/c1ccc2c(c1)nc(CCc1ccccc1)n2CCN1CCCC1)NO [Compound 72, N-Hydroxy-3-[2-phenyethyl-1-(2-pyrrolidin-1-yl-ethyl)-1H-benzimidazol-5-yl]-acrylamide] | 180 nM | – | –
CN(C)CC(C)(C)Cn1c(SCc2ccccc2)nc2cc(/C=C/C(=O)NO)ccc21 [Compound 89, N-Hydroxy-3-[2-benzylsulfanyl-1-(3-dimethylamino-2-2,dimethyl-propyl)-1H-benzimidazol-5-yl]-acrylamide] | – | – | GI50 ([3]; COLO 205, 96 h): 120 nM

More lines, main results first:

GI50 ([3]; COLO 205) | GI50 [4] | SMILES | further results
4470 nM | 5920 nM | Cn1c(CNC(=O)Cc2ccccc2)nc2cc(/C=C/C(=O)NO)ccc21 [Compound 54] | –
> 100000 nM | > 100000 nM | Cn1c(CNC(=O)c2ccncc2)nc2cc(/C=C/C(=O)NO)ccc21 [Compound 55] | IC50 [6]: 137 nM
> 100000 nM | > 100000 nM | O=C(/C=C/c1ccc2c(c1)nc(CCc1ccccc1)n2CCCn1ccnc1)NO [Compound 56, N-Hydroxy-3-[1-(3-imidazol-1-yl-propyl)-2-phenethyl-1H-benzimidazol-5-yl]-acrylamide] | –
2720 nM | 3690 nM | Cn1c(CCc2ccccc2)nc2ccc(/C=C/C(=O)NO)cc21 [Compound 59] | IC50 [6]: 382 nM
2690 nM | 3050 nM | Cn1c(CN(Cc2ccccc2)Cc2ccccc2)nc2cc(/C=C/C(=O)NO)ccc21 [Compound 61] | –
11600 nM | 19800 nM | COc1ccc(CNCc2nc3cc(/C=C/C(=O)NO)ccc3n2C)cc1 [Compound 62] | –
730 nM | – | CCn1c(CN(Cc2ccccc2)Cc2ccccc2)nc2cc(/C=C/C(=O)NO)ccc21 [Compound 68] | –
7160 nM | – | Cn1c(CNC(=O)Cc2ccc(F)cc2)nc2cc(/C=C/C(=O)NO)ccc21 [Compound 69] | –
2900 nM | – | CCn1c(CCNC(=O)Cc2ccccc2)nc2cc(/C=C/C(=O)NO)ccc21 [Compound 70] | –
7090 nM | – | CCn1c(CCNS(=O)(=O)c2ccccc2)nc2cc(/C=C/C(=O)NO)ccc21 [Compound 71] | –
6670 nM | – | CCn1c(CCNC(=O)COc2ccccc2)nc2cc(/C=C/C(=O)NO)ccc21 [Compound 73] | –
2880 nM | – | CC(C)(C)Cn1c(CCc2ccccc2)nc2cc(/C=C/C(=O)NO)ccc21 [Compound 75] | IC50 [6]: 290 nM
250 nM | – | CN(C)CC(C)(C)Cn1c(CCCc2ccccc2)nc2cc(/C=C/C(=O)NO)ccc21 [Compound 83] | –
170 nM | – | CN(C)CC(C)(C)Cn1c(CCc2ccc(F)cc2)nc2cc(/C=C/C(=O)NO)ccc21 [Compound 84] | –
1650 nM | – | O=C(/C=C/c1ccc2[nH]c(CCc3ccc(F)cc3)nc2c1)NO [Compound 85] | –
47700 nM | – | O=C(/C=C/c1ccc2[nH]c(CCc3cccnc3)nc2c1)NO [Compound 87] | –
